≈ marks a conversion by molar mass, not a printed value. Read-outs that look alike come from different tables or passages of the source.
Tests used:
[1] = tested on: Coxsackie virus A21; test: in vitro antiviral spectrum; format: cell-based; settings: read-out: Minimum inhibitory concentration
[2] = tested on: Coxsackie virus B1; test: Anti-Coxsackie virus activity, lethal infection in mice; settings: Mus musculus, 504 h, read-out: Survival
[3] = tested on: rhinovirus type 36; test: in vitro antiviral spectrum; format: cell-based; settings: Enterovirus; rhinovirus type 36; read-out: Minimum inhibitory concentration
[4] = tested on: rhinovirus HGP; test: Inhibition of viral cytopathogenic effect in HeLa cells (rhinovirus HGP); format: cell-based; settings: Enterovirus, HeLa, 48 h, read-out: IC50 rhinovirus HGP
[5] = tested on: rhinovirus type 9; test: in vitro antiviral spectrum; format: cell-based; settings: Enterovirus; rhinovirus type 9; read-out: Minimum inhibitory concentration
[6] = acute toxicity in mice; settings: mouse, in vivo, day 21
[7] = tested on: rhinovirus type 21; test: in vitro antiviral spectrum; format: cell-based; settings: Enterovirus; rhinovirus type 21; read-out: Minimum inhibitory concentration
[8] = tested on: rhinovirus type 53; test: in vitro antiviral spectrum; format: cell-based; settings: Enterovirus; rhinovirus type 53; read-out: Minimum inhibitory concentration
[9] = tested on: rhinovirus type 13; test: in vitro antiviral spectrum; format: cell-based; settings: Enterovirus; rhinovirus type 13; read-out: Minimum inhibitory concentration
[10] = tested on: rhinovirus type 34; test: in vitro antiviral spectrum; format: cell-based; settings: Enterovirus; rhinovirus type 34; read-out: Minimum inhibitory concentration
[11] = tested on: rhinovirus type 4; test: in vitro antiviral spectrum; format: cell-based; settings: Enterovirus; rhinovirus type 4; read-out: Minimum inhibitory concentration
[12] = tested on: rhinovirus type 17; test: in vitro antiviral spectrum; format: cell-based; settings: Enterovirus; rhinovirus type 17; read-out: Minimum inhibitory concentration
[13] = tested on: ECHO virus type 11; test: in vitro antiviral spectrum; format: cell-based; settings: read-out: Minimum inhibitory concentration
[14] = tested on: Coxsackie virus B1; test: Inhibition of viral cytopathogenic effect in HeLa cells (Coxsackie virus B1); format: cell-based
[15] = tested on: HeLa cell; test: HeLa cell growth; format: cell-based; settings: 0.5 to 2 μg/ml
[16] = tested on: poliovirus type 1; test: microbe, parasite or virus in culture; format: cell-based; settings: Enterovirus C, read-out: Minimum inhibitory concentration
[17] = tested on: rhinovirus type 14; test: in vitro antiviral spectrum; format: cell-based; settings: Enterovirus; rhinovirus type 14; read-out: Minimum inhibitory concentration
[18] = tested on: rhinovirus type 47; test: in vitro antiviral spectrum; format: cell-based; settings: Enterovirus; rhinovirus type 47; read-out: Minimum inhibitory concentration
[19] = tested on: rhinoviruses HGP, 1A and Coxsackie virus B1; test: Inhibition of viral replication in HeLa cells; format: cell-based; settings: concentrations of 0.5 to 2 μg/ml, HeLa cells (FIG. 1)
[20] = tested on: rhinovirus type 44; test: in vitro antiviral spectrum; format: cell-based; settings: Enterovirus; rhinovirus type 44; read-out: Minimum inhibitory concentration
[21] = tested on: rhinovirus type 3; test: in vitro antiviral spectrum; format: cell-based; settings: Enterovirus; rhinovirus type 3; read-out: Minimum inhibitory concentration
[22] = tested on: rhinovirus type 39; test: in vitro antiviral spectrum; format: cell-based; settings: Enterovirus; rhinovirus type 39; read-out: Minimum inhibitory concentration
[23] = tested on: rhinovirus type 55; test: in vitro antiviral spectrum; format: cell-based; settings: Enterovirus; rhinovirus type 55; read-out: Minimum inhibitory concentration
[24] = tested on: rhinovirus type 50; test: in vitro antiviral spectrum; format: cell-based; settings: Enterovirus; rhinovirus type 50; read-out: Minimum inhibitory concentration
[25] = tested on: rhinovirus type 1A; test: in vitro antiviral spectrum; format: cell-based; settings: Enterovirus; rhinovirus type 1A; read-out: Minimum inhibitory concentration
[26] = tested on: rhinovirus type 32; test: in vitro antiviral spectrum; format: cell-based; settings: Enterovirus; rhinovirus type 32; read-out: Minimum inhibitory concentration
[27] = tested on: ECHO virus type 12; test: in vitro antiviral spectrum; format: cell-based; settings: read-out: Minimum inhibitory concentration
[28] = tested on: ECHO virus type 19; test: in vitro antiviral spectrum; format: cell-based; settings: read-out: Minimum inhibitory concentration
[29] = tested on: rhinovirus type 16; test: in vitro antiviral spectrum; format: cell-based; settings: Enterovirus; rhinovirus type 16; read-out: Minimum inhibitory concentration
[30] = tested on: rhinovirus type 26; test: in vitro antiviral spectrum; format: cell-based; settings: Enterovirus; rhinovirus type 26; read-out: Minimum inhibitory concentration
[31] = tested on: rhinovirus type 2; test: in vitro antiviral spectrum; format: cell-based; settings: Enterovirus; rhinovirus type 2; read-out: Minimum inhibitory concentration
[32] = tested on: rhinovirus type 30; test: in vitro antiviral spectrum; format: cell-based; settings: Enterovirus; rhinovirus type 30; read-out: Minimum inhibitory concentration
[33] = tested on: ECHO virus type 9; test: in vitro antiviral spectrum; format: cell-based; settings: read-out: Minimum inhibitory concentration

SMILES: COc1cc(O)c2c(=O)c(OC)c(-c3ccc(O)c(OC)c3)oc2c1 [4',5-dihydroxy-3,3',7-trimethoxyflavone]
- MIC [1]: 0.1 to 0.3 µg/mL (≈ 0.29 to 0.871 µM)
- responders at 10 mg/kg ([2]; ip): 10%
- responders at 20 mg/kg ([2]; ip): 20%
- responders at 20 mg/kg ([2]; po): 10%
- responders at 40 mg/kg ([2]; po): 30%
- MIC [3]: 0.3 µg/mL (≈ 0.871 µM)
- IC50 [4]: 0.1 µg/mL (≈ 0.29 µM)
- MIC [5]: 0.1 µg/mL (≈ 0.29 µM)
- LD50 at 504 h ([6]; ip, single dose i.p., dissolved in dimethyl sulfoxide, read-out: LD50 i.p.): > 1000 mg/kg
- LD50 at 504 h ([6]; po, single dose p.o., suspended in 0.5% carboxymethylcellulose, read-out: LD50 p.o.): > 5000 mg/kg
- MIC [7]: 0.3 µg/mL (≈ 0.871 µM)
- MIC [8]: 0.1 µg/mL (≈ 0.29 µM)
- MIC [9]: 0.3 to 1 µg/mL (≈ 0.871 to 2.9 µM)
- MIC [10]: 0.3 µg/mL (≈ 0.871 µM)
- MIC [11]: 1 µg/mL (≈ 2.9 µM)
- MIC [12]: 0.3 µg/mL (≈ 0.871 µM)
- MIC [13]: 0.1 to 0.3 µg/mL (≈ 0.29 to 0.871 µM)
- MIC ([14]; Coxsackie virus B1, read-out: Minimum inhibitory concentration): 0.1 to 0.2 µg/mL (≈ 0.29 to 0.581 µM)
- IC50 ([14]; HeLa, 24 h, read-out: IC50 Coxsackie virus B1): 0.1 to 0.2 µg/mL (≈ 0.29 to 0.581 µM)
- effect on HeLa cell growth [15]: HeLa cell growth is not affected
- MIC [16]: 0.1 to 0.3 µg/mL (≈ 0.29 to 0.871 µM)
- MIC [17]: 0.1 µg/mL (≈ 0.29 µM)
- MIC [18]: 0.3 µg/mL (≈ 0.871 µM)
- reduction of viral replication [19]: reduces the viral replication quite considerably
- MIC [20]: 0.05 to 0.5 µg/mL (≈ 0.145 to 1.45 µM)
- MIC [21]: 0.1 µg/mL (≈ 0.29 µM)
- MIC [22]: 0.1 µg/mL (≈ 0.29 µM)
- MIC [23]: 0.3 µg/mL (≈ 0.871 µM)
- MIC [24]: 0.3 µg/mL (≈ 0.871 µM)
- MIC [25]: 0.03 µg/mL (≈ 0.0871 µM)
- MIC [26]: 0.1 µg/mL (≈ 0.29 µM)
- MIC [27]: 0.1 to 0.3 µg/mL (≈ 0.29 to 0.871 µM)
- MIC [28]: 0.1 to 0.3 µg/mL (≈ 0.29 to 0.871 µM)
- MIC [29]: 0.3 µg/mL (≈ 0.871 µM)
- MIC [30]: 0.3 µg/mL (≈ 0.871 µM)
- MIC [31]: 0.1 µg/mL (≈ 0.29 µM)
- MIC [32]: 0.03 to 0.1 µg/mL (≈ 0.0871 to 0.29 µM)
- MIC [33]: 0.1 to 0.3 µg/mL (≈ 0.29 to 0.871 µM)

Reference: US4352792A, “3-Alkoxyflavone antiviral agents” (priority 1979, dated 1982)
